Measured values taken from ChEMBL document CHEMBL6087456 (J Med Chem, 2025).
pEC50, pIC50: −log10 of the molar value. In brackets after ≈: the same amount, converted by molar mass.

Experiments:
[1] = Kinetic solubility of compound at pH 6.5 measured after 30 mins by nephelometry; format: physicochemical; settings: buffer; for Kinetic_solubility: pH 6.5, 0.5 h; for solubility kinetic at 0.5 h: pH 6.5, read-out: Kinetic_solubility
[2] = target: Dihydroorotate dehydrogenase (quinone), mitochondrial (Homo sapiens, UniProt Q02127); experiment: Inhibition of C-terminal His6-tagged recombinant human DHODH (29 to 395 residues) N-terminally truncated soluble domain extracted from Escherichia coli phage resistant BL21-DE3 using CoQD/DHA/DCIP as substrates
[3] = target: T1, Dihydroorotate dehydrogenase (quinone), mitochondrial (Plasmodium falciparum (isolate 3D7), UniProt Q08210); experiment: Inhibition of N-terminal His6-tagged recombinant Plasmodium falciparum DHODH (158 to 569 residues) N-terminally truncated soluble domain extracted from Escherichia coli phage resistant BL21-DE3 using CoQD/DHA/DCIP as substrates
T1 sequence (Q08210 whole entry): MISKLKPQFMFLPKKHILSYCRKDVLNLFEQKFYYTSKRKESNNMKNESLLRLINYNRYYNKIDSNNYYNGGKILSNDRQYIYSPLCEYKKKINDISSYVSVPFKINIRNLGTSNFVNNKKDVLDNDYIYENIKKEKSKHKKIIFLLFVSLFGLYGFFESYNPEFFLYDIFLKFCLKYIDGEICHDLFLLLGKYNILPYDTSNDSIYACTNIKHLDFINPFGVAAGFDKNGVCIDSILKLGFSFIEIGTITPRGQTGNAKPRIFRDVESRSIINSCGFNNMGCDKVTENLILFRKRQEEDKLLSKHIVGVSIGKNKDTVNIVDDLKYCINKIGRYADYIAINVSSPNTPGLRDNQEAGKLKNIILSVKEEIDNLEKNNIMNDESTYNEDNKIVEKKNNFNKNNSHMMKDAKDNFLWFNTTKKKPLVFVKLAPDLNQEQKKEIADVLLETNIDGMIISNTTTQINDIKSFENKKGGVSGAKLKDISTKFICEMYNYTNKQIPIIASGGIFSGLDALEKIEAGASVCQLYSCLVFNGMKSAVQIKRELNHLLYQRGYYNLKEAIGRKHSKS

[4] = Metabolic stability in human liver microsomes assessed as intrinsic clearance at 0.5 uM incubated for 60 mins in presence of NADPH by tandem quadrupole-Time of Flight MS; format: ADME, Microsome; settings: 1 h
[5] = Partition coefficient, log D of compound at pH 7.4 measured after 24 hrs by LCMS analysis; format: physicochemical; settings: octanol/water, pH 7.4, 24 h
[6] = Ratio of drug concentration in Sprague-Dawley rat brain to plasma at 1 uM measured for 5 to 60 mins by LCMS analysis; format: ADME, cell-free; settings: time 5-60 min
[7] = test system: Plasmodium falciparum; experiment: Antiparasitic activity against asexual blood stage Plasmodium falciparum 3D7 incubated for 72 hrs by SYBR Green assay; format: functional, organism-based; settings: 3D7, 72 h
[8] = Half life in overnight-fasted male Sprague-Dawley rat at 3 mg/kg, po or 1 mg/kg, iv measured upto 72 hrs by LCMS analysis; format: ADME, organism-based; settings: in vivo
[9] = target: Albumin (Homo sapiens, UniProt P02768); experiment: Protein binding to albumin (unknown origin) in ALBUMAX medium; format: ADME; settings: read-out: PB (converted)
[10] = Oral absorption in overnight-fasted male Sprague-Dawley rat at 3 mg/kg measured upto 72 hrs by LCMS analysis; format: ADME, organism-based; settings: in vivo
[11] = Plasma protein binding in rat measured for 6 hrs by rapid equilibrium dialysis; format: ADME, cell-free
[12] = Plasma protein binding in human measured for 6 hrs by rapid equilibrium dialysis; format: ADME, cell-free
[13] = Protein binding in human hepatocytes; format: ADME, cell-based, Hepatocyte; settings: read-out: PB (converted)
[14] = Oral bioavailability in overnight-fasted male Sprague-Dawley rat at 3 mg/kg measured upto 72 hrs by LCMS analysis; format: ADME, organism-based; settings: in vivo

Chain of Dihydroorotate dehydrogenase (quinone), mitochondrial (Homo sapiens, UniProt Q02127) (Q02127 whole entry, the tested form may be a part): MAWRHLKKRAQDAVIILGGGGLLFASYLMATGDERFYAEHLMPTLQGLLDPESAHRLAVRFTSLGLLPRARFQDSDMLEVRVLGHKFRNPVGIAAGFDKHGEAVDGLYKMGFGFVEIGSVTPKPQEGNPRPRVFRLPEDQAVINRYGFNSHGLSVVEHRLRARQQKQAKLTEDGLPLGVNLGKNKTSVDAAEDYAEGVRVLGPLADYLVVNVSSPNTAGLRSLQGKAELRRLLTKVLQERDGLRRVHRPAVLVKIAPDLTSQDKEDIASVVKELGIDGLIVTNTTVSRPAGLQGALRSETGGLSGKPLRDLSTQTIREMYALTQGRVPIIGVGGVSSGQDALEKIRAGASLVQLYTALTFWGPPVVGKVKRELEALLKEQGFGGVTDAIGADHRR
Chain of Albumin (P02768 whole entry): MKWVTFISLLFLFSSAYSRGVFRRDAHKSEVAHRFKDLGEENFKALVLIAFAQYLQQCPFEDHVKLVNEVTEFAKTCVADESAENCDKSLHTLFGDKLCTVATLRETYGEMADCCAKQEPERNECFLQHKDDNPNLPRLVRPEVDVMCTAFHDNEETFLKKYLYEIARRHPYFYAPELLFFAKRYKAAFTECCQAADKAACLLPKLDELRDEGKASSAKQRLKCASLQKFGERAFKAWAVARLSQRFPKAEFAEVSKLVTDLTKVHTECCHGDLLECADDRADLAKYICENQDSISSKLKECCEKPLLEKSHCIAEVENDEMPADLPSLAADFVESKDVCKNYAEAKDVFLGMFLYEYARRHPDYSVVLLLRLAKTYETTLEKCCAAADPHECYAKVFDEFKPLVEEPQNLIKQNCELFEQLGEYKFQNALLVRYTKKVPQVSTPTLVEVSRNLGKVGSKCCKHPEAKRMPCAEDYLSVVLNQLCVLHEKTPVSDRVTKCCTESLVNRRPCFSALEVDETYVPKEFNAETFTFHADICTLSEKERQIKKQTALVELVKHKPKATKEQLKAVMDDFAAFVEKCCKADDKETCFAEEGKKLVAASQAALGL

Compound	Kinetic_solubility [1] [µM]	pIC50 [2]	pIC50 [3]	intrinsic clearance (CLint) [4] [µL/min/mg]	logD [5]	BPR [6]	pEC50 [7]	solubility kinetic at 0.5 h [1] [µM]	t1/2 [8] [h]	fraction unbound [9]	Fa at 72 h [10] [%]	PPB [11] [%]	PPB [12] [%]	fraction unbound [13]	F [14] [%]
CCn1cc(C)c2c([C@H](N)c3ccc(C(F)(F)F)nc3)n(C)nc2c1=O	> 320	< 4.00	6.55	< 3	1.82	1.1	7.15	–	–	–	–	–	–	–	–
Cn1nc2c(=O)n(C3CC3)cc(C3CC3)c2c1Cc1ccc(C(F)(F)F)nc1	–	4.77	7.37	< 7	–	–	7.49	65 (≈ 25.2 µg/mL)	–	–	–	–	–	–	–
Cc1nn(C2CC2)c(=O)c2nn(C)c(Cc3ccc(C(F)(F)F)c(C#N)c3)c12	–	–	–	–	–	–	–	–	31	0.499	15	–	–	–	–
Cn1nc2c(=O)n(C3CC3)ccc2c1Cc1ccc(C(F)(F)F)c(C#N)c1	–	< 4.00	6.85	< 7	–	–	7.09	67 (≈ 24.9 µg/mL)	–	–	–	–	–	–	–
CC[C@@](O)(c1ccc(C(F)(F)F)c(C#N)c1)c1c2ccn(C3CC3)c(=O)c2nn1C	–	6.02	7.72	< 3	–	–	9.00	20 (≈ 8.33 µg/mL)	–	–	–	–	–	–	–
CCn1cc(C2CC2)c2c(CN3CCC(F)(F)C(C)(C)C3)n(C)nc2c1=O	–	< 4.52	7.68	160	–	–	7.82	12.5 (≈ 4.73 µg/mL)	–	–	–	–	–	–	–
CCn1ccc2c([C@@](O)(CC)c3ccc(C(F)(F)F)nc3)n(C)nc2c1=O	–	–	–	3.6	–	–	8.70	40 (≈ 15.2 µg/mL)	3.4	0.821	–	75.4	–	–	–
CCn1cc(C2CC2)c2c(Cc3cnc(C(F)(F)F)c(OC)c3)n(C)nc2c1=O	–	< 4.00	7.24	25	–	–	7.77	60 (≈ 24.4 µg/mL)	–	–	–	–	–	–	–
Cn1nc2c(=O)n(C3CC3)ccc2c1[C@](O)(c1cnc(C(F)(F)F)c(Cl)c1)C1CC1	–	< 4.52	–	< 3	–	–	8.52	12.5 (≈ 5.49 µg/mL)	19	0.289	4.6	93	95.8	0.578	–
CCn1cc(C2CC2)c2c(CN3CCC4(CCC4)CC3)n(C)nc2c1=O	–	4.66	8.10	130	–	–	7.82	80 (≈ 28.4 µg/mL)	–	–	–	–	–	–	–
Cn1nc2c(=O)n(C3CC3)ccc2c1[C@](O)(c1ccc(C(F)(F)F)c(C#N)c1)C1CC1	< 5	< 4.52	7.74	< 3	–	–	9.00	–	–	–	–	–	–	–	–
CCn1ccc2c(Cc3ccc(C(F)(F)F)nc3)n(C)nc2c1=O	> 300	< 4.52	5.82	< 7	–	–	6.24	–	–	–	–	–	–	–	–
CCn1cc(C2CC2)c2c(Cc3ccc(C(F)(F)F)c(C#N)c3)n(C)nc2c1=O	–	4.96	7.82	64	–	–	8.40	15 (≈ 6.01 µg/mL)	–	–	–	–	–	–	–
CCn1ccc2c([C@](O)(c3cnc(C(F)(F)F)c(Cl)c3)C3CC3)n(C)nc2c1=O	–	< 4.00	–	3.2	–	0.84	8.70	40 (≈ 17.1 µg/mL)	–	–	–	64	70.4	–	–
CCn1cc(C2CC2)c2c(Cc3ccc(C(F)(F)F)c(F)c3)n(C)nc2c1=O	–	4.85	7.85	52	–	–	8.10	16 (≈ 6.29 µg/mL)	–	–	–	–	–	–	–
CC[C@@](O)(c1ccc(F)c(Cl)c1)c1c2ccn(C3CC3)c(=O)c2nn1C	–	6.15	8.15	8.4	–	–	9.00	40 (≈ 15 µg/mL)	–	–	–	–	–	–	–
CCn1cc(C)c2c(Cc3ccc(C(F)(F)F)nc3)n(C)nc2c1=O	> 280	< 4.00	7.15	< 7	–	–	7.36	–	–	–	–	–	–	–	–
CCn1cc(Cl)c2c(Cc3ccc(C(F)(F)F)nc3)n(C)nc2c1=O	–	4.14	–	14	–	0.72	7.85	70 (≈ 26 µg/mL)	–	0.558	100	–	–	–	–
CCn1cc(Cl)c2c(Cc3ccc(N4CCOCC4)nc3)n(C)nc2c1=O	–	< 4.00	6.72	15	–	–	6.43	65 (≈ 25.2 µg/mL)	–	–	–	–	–	–	–
CC[C@@](N)(c1cnc(C(F)(F)F)c(Cl)c1)c1c2ccn(C3CC3)c(=O)c2nn1C	> 100	–	–	< 3	–	0.73	8.52	–	15	0.63	82	–	–	0.574	4
Cn1nc2c(=O)n(C3CC3)cnc2c1[C@](O)(c1ccc(C(F)(F)F)c(Cl)c1)C(F)(F)F	–	5.19	8.30	< 3	–	–	4.11	20 (≈ 9.34 µg/mL)	–	–	–	–	–	–	–
Cn1nc2c(=O)n(C3CC3)ccc2c1[C@](O)(c1ccc(C(F)(F)F)nc1)C1CC1	–	< 4.52	–	< 3	–	–	8.15	20 (≈ 8.09 µg/mL)	–	–	40	–	–	–	–
Cc1cn(C2CC2)c(=O)c2nn(C)c(Cc3ccc(C(F)(F)F)nc3)c12	–	4.28	7.05	< 7	–	–	7.35	130 (≈ 47.1 µg/mL)	–	–	–	–	–	–	–
Cn1nc2c(=O)n(C3CC3)ncc2c1[C@](O)(c1ccc(C(F)(F)F)c(C#N)c1)C(F)(F)F	–	< 4.52	7.72	< 3	–	–	9.00	20 (≈ 9.15 µg/mL)	–	–	–	–	–	–	–
CCn1cc(Cl)c2c(Cc3ccc(N4CCCCC4)nc3)n(C)nc2c1=O	–	5.27	7.77	160	–	–	7.21	40 (≈ 15.4 µg/mL)	–	–	–	–	–	–	–
